What was measured:
[1] = tested on: Super-Stre.-resisting dnaQ; assay: Minimum growth inhibiting concentration (MIC) of antibiotic substances; format: cell-based, Escherichia coli
Wild-Type = format: cell-based, Escherichia coli
Super-Amp-resistant dnaQ = format: cell-based, Escherichia coli
dnaQ+ strain (wild type) = format: cell-based, Escherichia coli
dnaQ49 strain [2] = assay: Drug resistance reached by repeated mutagenesis and selection (Example 2); format: cell-based, Escherichia coli
dnaQ = format: cell-based, Escherichia coli
[3] = tested on: Super-Nali.-resisting dnaQ; assay: Minimum growth inhibiting concentration (MIC) of antibiotic substances; format: cell-based, Escherichia coli
dnaQ49 strain [4] = assay: Ampicillin concentration-survival (colony forming) after mutagenesis runs; format: cell-based, Escherichia coli; conditions: for AC: Ampicillin Concentration (maximum concentration for ampicillin resistance): dnaQ49 strain
[5] = tested on: ampicillin-resistant Escherichia coli; conditions: resistance due to plasmid; cited from earlier work
wild type (dnaQ+ strain) = assay: Ampicillin concentration-survival (colony forming) after mutagenesis runs, with or without MNNG; format: cell-based, Escherichia coli; conditions: for Maximum concentration for ampicillin resistance: wild type and MNNG wild type
[6] = mutagenesis treatment for 1 time
[7] = mutagenesis treatments for 2 times
[8] = mutagenesis treatments for 3 times
[9] = mutagenesis treatments for 4 times
[10] = mutagenesis treatments for 5 times
[11] = mutagenesis treatments for 6 times
[12] = mutagenesis treatments for 7 times
[13] = mutagenesis treatments for 8 times
[14] = mutagenesis treatments for 9 times
[15] = mutagenesis treatments for 10 times
[16] = mutagenesis treatments for 11 times
[17] = mutagenesis treatments for 12 times
[18] = mutagenesis treatments for 13 times
[19] = mutagenesis treatments for 14 times
[20] = mutagenesis treatments for 15 times
[21] = mutagenesis treatments for 16 times
[22] = mutagenesis treatments for 17 times
[23] = mutagenesis treatments for 18 times
[24] = mutagenesis treatments for 19 times
[25] = mutagenesis treatments for 20 times
[26] = mutagenesis treatments for 21 times
[27] = mutagenesis treatments for 22 times
[28] = mutagenesis treatments for 23 times

[H]/N=C(/N)N[C@H]1[C@H](O)[C@@H](O)[C@H](O[C@@H]2O[C@@H](C)[C@](O)(C=O)[C@H]2O[C@@H]2O[C@@H](CO)[C@H](O)[C@@H](O)[C@@H]2NC)[C@@H](N/C(N)=N\[H])[C@@H]1O [Streptomycin]
Minimum growth inhibiting concentration (MIC) [1]: 2048
Minimum growth inhibiting concentration (MIC) (Wild-Type): 1
Minimum growth inhibiting concentration (MIC) (Super-Amp-resistant dnaQ): 0.5
Growth of dnaQ+ strain (wild type) in the presence of drug (dnaQ+ strain (wild type)): *3) dnaQ+ strain (wild type) did not grow in the presence of 10 μg/ml of streptomycin.
Concentration of Streptomycin (dnaQ49 strain [2]; [6]): 1 µg/mL
Concentration of Streptomycin (dnaQ49 strain [2]; [7]): 10 µg/mL
Concentration of Streptomycin (dnaQ49 strain [2]; [8]): 100 µg/mL
Concentration of Streptomycin (dnaQ49 strain [2]; [9]): 1000 µg/mL
Concentration of Streptomycin (dnaQ49 strain [2]; [10]): 3000 µg/mL
Concentration of Streptomycin (dnaQ49 strain [2]; [11]): 4000 µg/mL
Concentration of Streptomycin (dnaQ49 strain [2]; [12]): 6000 µg/mL
Concentration of Streptomycin (dnaQ49 strain [2]; [13]): 8000 µg/mL
Concentration of Streptomycin (dnaQ49 strain [2]; [14]): 9000 µg/mL
Concentration of Streptomycin (dnaQ49 strain [2]; [15]): 10000 µg/mL
Concentration of Streptomycin (dnaQ49 strain [2]; [16]): 12000 µg/mL
Concentration of Streptomycin (dnaQ49 strain [2]; [17]): 14000 µg/mL
Concentration of Streptomycin (dnaQ49 strain [2]; [18]): 16000 µg/mL
Concentration of Streptomycin (dnaQ49 strain [2]; [19]): 17000 µg/mL
Concentration of Streptomycin (dnaQ49 strain [2]; [20]): 18000 µg/mL
Concentration of Streptomycin (dnaQ49 strain [2]; [21]): 19000 µg/mL
Concentration of Streptomycin (dnaQ49 strain [2]; [22]): 20000 µg/mL
Concentration of Streptomycin (dnaQ49 strain [2]; [23]): 21000 µg/mL
Concentration of Streptomycin (dnaQ49 strain [2]; [24]): 22000 µg/mL
Concentration of Streptomycin (dnaQ49 strain [2]; [25]): 23000 µg/mL
Concentration of Streptomycin (dnaQ49 strain [2]; [26]): 24000 µg/mL
Concentration of Streptomycin (dnaQ49 strain [2]; [27]): 25000 µg/mL
Concentration of Streptomycin (dnaQ49 strain [2]; [28]): 26000 µg/mL
Concentration of Streptomycin (dnaQ49 strain [2]; mutagenesis treatments for 23 times, listed as streptomycin): 26,000 μg/ml
Minimum growth inhibiting concentration (MIC) (dnaQ): 1

CCn1cc(C(=O)O)c(=O)c2ccc(C)nc21 [Nalidixic acid]
Minimum growth inhibiting concentration (MIC) (Wild-Type): 2
Minimum growth inhibiting concentration (MIC) (Super-Amp-resistant dnaQ): 0.5
Growth of dnaQ+ strain (wild type) in the presence of drug (dnaQ+ strain (wild type)): *3) dnaQ+ strain (wild type) did not grow in the presence of 10 μg/ml of nalidixic acid.
Minimum growth inhibiting concentration (MIC) [3]: 2048
Concentration of Nalidixic Acid (dnaQ49 strain [2]; [6]): 1 µg/mL
Concentration of Nalidixic Acid (dnaQ49 strain [2]; [7]): 10 µg/mL
Concentration of Nalidixic Acid (dnaQ49 strain [2]; [8]): 100 µg/mL
Concentration of Nalidixic Acid (dnaQ49 strain [2]; [9]): 200 µg/mL
Concentration of Nalidixic Acid (dnaQ49 strain [2]; [10]): 400 µg/mL
Concentration of Nalidixic Acid (dnaQ49 strain [2]; [11]): 600 µg/mL
Concentration of Nalidixic Acid (dnaQ49 strain [2]; [12]): 1000 µg/mL
Concentration of Nalidixic Acid (dnaQ49 strain [2]; [13]): 1100 µg/mL
Concentration of Nalidixic Acid (dnaQ49 strain [2]; [14]): 1200 µg/mL
Concentration of Nalidixic Acid (dnaQ49 strain [2]; [15]): 1300 µg/mL
Concentration of Nalidixic Acid (dnaQ49 strain [2]; [16]): 1400 µg/mL
Concentration of Nalidixic Acid (dnaQ49 strain [2]; [17]): 1600 µg/mL
Concentration of Nalidixic Acid (dnaQ49 strain [2]; [18]): 1800 µg/mL
Concentration of Nalidixic Acid (dnaQ49 strain [2]; [19]): 2000 µg/mL
Concentration of Nalidixic Acid (dnaQ49 strain [2]; [20]): 2500 µg/mL
Concentration of Nalidixic Acid (dnaQ49 strain [2]; [21]): 3000 µg/mL
Concentration of Nalidixic Acid (dnaQ49 strain [2]; [22]): 4000 µg/mL
Concentration of Nalidixic Acid (dnaQ49 strain [2]; [23]): 5000 µg/mL
Concentration of Nalidixic Acid (dnaQ49 strain [2]; [24]): 6000 µg/mL
Concentration of Nalidixic Acid (dnaQ49 strain [2]; [25]): 6200 µg/mL
Concentration of Nalidixic Acid (dnaQ49 strain [2]; [26]): 6400 µg/mL
Concentration of Nalidixic Acid (dnaQ49 strain [2]; [27]): 6600 µg/mL
Concentration of Nalidixic Acid (dnaQ49 strain [2]; [28]): 6800 µg/mL
Concentration of Nalidixic Acid (dnaQ49 strain [2]; mutagenesis treatments for 24 times, listed as Nalidixic Acid): 7000 µg/mL
Concentration of Nalidixic Acid (dnaQ49 strain [2]; mutagenesis treatments for 24 times, listed as nalidixic acid): 7,000 μg/ml
Minimum growth inhibiting concentration (MIC) (dnaQ): 1

CO[C@H]1/C=C/O[C@@]2(C)Oc3c(C)c(O)c4c(O)c(c(/C=N/N5CCN(C)CC5)c(O)c4c3C2=O)NC(=O)/C(C)=C\C=C\[C@H](C)[C@H](O)[C@@H](C)[C@@H](O)[C@@H](C)[C@H](OC(C)=O)[C@@H]1C [Rifampicin]
Minimum growth inhibiting concentration (MIC) (Wild-Type): 4
Minimum growth inhibiting concentration (MIC) (Super-Amp-resistant dnaQ): 2
Minimum growth inhibiting concentration (MIC) (dnaQ): 8

CO/N=C(\C(=O)N[C@@H]1C(=O)N2C(C(=O)O)=C(COC(C)=O)CS[C@H]12)c1csc(N)n1 [Cefotaxime]
Minimum growth inhibiting concentration (MIC) (Wild-Type): 0.0156
Minimum growth inhibiting concentration (MIC) (Super-Amp-resistant dnaQ): 64
Resistance of ampicillin-resistant dnaQ49 strain to other antibiotic substances (MIC investigation) (Super-Amp-resistant dnaQ): strong resistance
Minimum growth inhibiting concentration (MIC) (dnaQ): 0.0313

CC1(C)S[C@@H]2[C@H](NC(=O)[C@H](N)c3ccccc3)C(=O)N2[C@H]1C(=O)O [Ampicillin]
Ampicillin resistance of strain obtained (dnaQ49 strain [4]; another dnaQ49 strain, five mutagenesis treatments (FIG. 7)): about 10,000 g/ml
Ampicillin resistance from concentration-survival curve (dnaQ49 strain [4]; dnaQ49 strain before introduction of mutation, compared with wild type, 24° C., two days): slightly stronger ampicillin resistance than the wild type
AC: Ampicillin Concentration (maximum concentration for ampicillin resistance) (dnaQ49 strain [4]; 1st Run of mutagenesis): 30 µg/mL
AC: Ampicillin Concentration (maximum concentration for ampicillin resistance) (dnaQ49 strain [4]; 2nd Run of mutagenesis): 300 µg/mL
AC: Ampicillin Concentration (maximum concentration for ampicillin resistance) (dnaQ49 strain [4]; 3rd Run of mutagenesis): 1000 µg/mL
AC: Ampicillin Concentration (maximum concentration for ampicillin resistance) (dnaQ49 strain [4]; 4th Run of mutagenesis): 3000 µg/mL
AC: Ampicillin Concentration (maximum concentration for ampicillin resistance) (dnaQ49 strain [4]; 5th Run of mutagenesis): 6000 µg/mL
AC: Ampicillin Concentration (maximum concentration for ampicillin resistance) (dnaQ49 strain [4]; 5th Run of mutagenesis, listed as ampicillin): about 6,000 μg/ml
Resistance concentration of ampicillin-resistant Escherichia coli reported up to now [5]: 1,500 μg/ml
Minimum growth inhibiting concentration (MIC) (Wild-Type): 1
Ampicillin resistance of resistant microorganism obtained (wild type (dnaQ+ strain); MNNG-treated group, low-concentration treatment): 300 µg/mL
AC: Ampicillin Concentration (maximum concentration for ampicillin resistance) (wild type (dnaQ+ strain); Wild type (MNNG Concn 0), 1st Run): 3 µg/mL
AC: Ampicillin Concentration (maximum concentration for ampicillin resistance) (wild type (dnaQ+ strain); Wild type (MNNG Concn 0), 2nd Run): 10 µg/mL
AC: Ampicillin Concentration (maximum concentration for ampicillin resistance) (wild type (dnaQ+ strain); Wild type (MNNG Concn 0), 3rd Run): 10 µg/mL
AC: Ampicillin Concentration (maximum concentration for ampicillin resistance) (wild type (dnaQ+ strain); Wild type (MNNG Concn 0), 4th Run): 10 µg/mL
AC: Ampicillin Concentration (maximum concentration for ampicillin resistance) (wild type (dnaQ+ strain); Wild type (MNNG Concn 0), 5th Run): 60 µg/mL
AC: Ampicillin Concentration (maximum concentration for ampicillin resistance) (wild type (dnaQ+ strain); Wild type (MNNG Concn 1), 1st Run): 3 µg/mL
AC: Ampicillin Concentration (maximum concentration for ampicillin resistance) (wild type (dnaQ+ strain); Wild type (MNNG Concn 1), 2nd Run): 10 µg/mL
AC: Ampicillin Concentration (maximum concentration for ampicillin resistance) (wild type (dnaQ+ strain); Wild type (MNNG Concn 1), 3rd Run): 10 µg/mL
AC: Ampicillin Concentration (maximum concentration for ampicillin resistance) (wild type (dnaQ+ strain); Wild type (MNNG Concn 1), 4th Run): 10 µg/mL
AC: Ampicillin Concentration (maximum concentration for ampicillin resistance) (wild type (dnaQ+ strain); Wild type (MNNG Concn 1), 5th Run): 60 µg/mL
AC: Ampicillin Concentration (maximum concentration for ampicillin resistance) (wild type (dnaQ+ strain); Wild type (MNNG Concn 3), 1st Run): 3 µg/mL
AC: Ampicillin Concentration (maximum concentration for ampicillin resistance) (wild type (dnaQ+ strain); Wild type (MNNG Concn 3), 2nd Run): 30 µg/mL
AC: Ampicillin Concentration (maximum concentration for ampicillin resistance) (wild type (dnaQ+ strain); Wild type (MNNG Concn 3), 3rd Run): 100 µg/mL
AC: Ampicillin Concentration (maximum concentration for ampicillin resistance) (wild type (dnaQ+ strain); Wild type (MNNG Concn 3), 4th Run): 300 µg/mL
AC: Ampicillin Concentration (maximum concentration for ampicillin resistance) (wild type (dnaQ+ strain); Wild type (MNNG Concn 6), 1st Run): 3 µg/mL
AC: Ampicillin Concentration (maximum concentration for ampicillin resistance) (wild type (dnaQ+ strain); Wild type (MNNG Concn 6), 2nd Run): 6 µg/mL
AC: Ampicillin Concentration (maximum concentration for ampicillin resistance) (wild type (dnaQ+ strain); Wild type (MNNG Concn 6), 3rd Run): 10 µg/mL
AC: Ampicillin Concentration (maximum concentration for ampicillin resistance) (wild type (dnaQ+ strain); Wild type (MNNG Concn 6), 4th Run): 10 µg/mL
AC: Ampicillin Concentration (maximum concentration for ampicillin resistance) (wild type (dnaQ+ strain); Wild type (MNNG Concn 6), 5th Run): 30 µg/mL
AC: Ampicillin Concentration (maximum concentration for ampicillin resistance) (wild type (dnaQ+ strain); Wild type (MNNG Concn 10), 1st Run): 6 µg/mL
AC: Ampicillin Concentration (maximum concentration for ampicillin resistance) (wild type (dnaQ+ strain); Wild type (MNNG Concn 30), 1st Run): 3 µg/mL
Maximum concentration for ampicillin resistance (wild type (dnaQ+ strain); after first mutagenesis): 3˜6 μg/ml
Maximum concentration for ampicillin resistance (wild type (dnaQ+ strain); after second mutagenesis): 6˜30 μg/ml
Minimum growth inhibiting concentration (MIC) (Super-Amp-resistant dnaQ): 2048
Minimum growth inhibiting concentration (MIC) (dnaQ): 2

O=C(N[C@H](CO)[C@H](O)c1ccc([N+](=O)[O-])cc1)C(Cl)Cl [Chloramphenicol]
Minimum growth inhibiting concentration (MIC) (Wild-Type): 0.5
Minimum growth inhibiting concentration (MIC) (Super-Amp-resistant dnaQ): 0.5
Minimum growth inhibiting concentration (MIC) (dnaQ): 1
